We go through one compound from patent EP0733365A2, “Use of benzoquinolin-3-ones for the treatment and prevention of prostatic cancer” (priority 1995, dated 1996).

For this experiment, the target named is T1, Type I 5α-reductase (Homo sapiens, UniProt P18405).
T1 construct: Scalp punch biopsies from graft recipient sites were obtained; from tissue; host or cells: human scalp skin (punch biopsies from hair transplant procedures); 100,000 x g pellet of the homogenate
T1 sequence (P18405 1-259): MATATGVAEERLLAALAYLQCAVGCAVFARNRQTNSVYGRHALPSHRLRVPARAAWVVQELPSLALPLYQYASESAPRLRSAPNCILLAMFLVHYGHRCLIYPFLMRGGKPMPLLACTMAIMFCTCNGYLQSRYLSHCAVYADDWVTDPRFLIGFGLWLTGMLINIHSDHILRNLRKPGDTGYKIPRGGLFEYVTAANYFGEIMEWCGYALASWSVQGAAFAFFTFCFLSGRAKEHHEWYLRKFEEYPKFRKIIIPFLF
Put plainly: Human Type I steroid 5α-reductase homogenate assay (conversion of [3H]-testosterone to [3H]-DHT and other 5α-reduced metabolites). Type of experiment: biochemical. Conditions: 0.3 µM concentration of compound, compared to control reaction mixtures. How it is done:
Methodology of Human Type I Steroid 5α-Reductase Assays
Preparation of Type I 5α-Reductase from Human Scalp: Scalp punch biopsies from graft recipient sites were obtained, following the proper Informed Consent and Institutional Review Board guidelines, from human hair transplant procedures immediately after surgery and were frozen on dry ice and stored at -80°C. Approximately 60-75 punches from one surgical procedure were used to generate an enzyme preparation. The subcutaneous tissue was cut away and discarded. The skin was frozen with liquid nitrogen and pulverized to powder. The powder was homogenized in 30 mL of ice-cold buffer (20 mM Tris-HCl, pH 7.5) using a Brinkmann Polytron (Westbury, NY) with a PTA 10-S probe and a setting of 7. The homogenization procedure consisted of four 15 second pulses. Connective tissue was cleared from the probe with forceps between pulses. The homogenate was then filtered through cheese cloth and the filtrate centrifuged at 100,000 x g for one hour in a Beckman L8-60M ultracentrifuge. The pellet was resuspended by homogenization with a Dounce homogenizer using the same buffer solution. An aliquot was taken for protein determination by the Lowry method, Lowry, et al., Protein Measurement with the Folin Phenol Reagent, J. Biol. Chem., 193, 265-75 (1951). Aliquots of the enzyme preparation were stored at -80° until use. Human 5α-Reductase Homogenate Assay: This enzyme assay is based on the conversion of [^3H]-testosterone to [^3H]-5α -dihydrotestosterone (DHT) and other 5α-reduced metabolites. […] In a total volume of 1.0 mL, the Type I assay contained 2.6 µCi [^3H]-testosterone (50 nM), 500 µM of reduced nicotine adenine dinucleotide phosphate, 100 mM Tris-HCl, pH 7.5, (in Type II assays, 40 mM sodium acetate at pH 5.5 is used instead of Tris-HCl) and test compounds as indicated. Test compounds were added in 20 µL of dimethylsulfoxide (20 µL of dimethylsulfoxide was added to blanks and controls). The reaction was initiated by the addition of 0.5 mg of Type I 5α-reductase. The reaction mixture was incubated at 25° for 180 min, and terminated by the addition of 1 mL ice-cold stopping solution. The stopping solution contained 40 µM each of non-radioactive testosterone, DHT, androstenedione, androstanedione, androsterone, androstan-3β17β- diol, and androstan-3α,17β-diol. The samples were prepared for high performance liquid chromatography by solid phase extraction. Disposable solid matrix extraction columns (C-18 reversed phase, 6 mL, 500 mg; Bond Elut™ from Analytichem International; Harbor City, CA) were conditioned by washing with 5 mL of methanol followed by 5 mL of deionized water. The reaction mixtures were then applied to the columns. The columns were subsequently washed with 5 mL of acetone:water (1:4), followed by 0.3 mL of methanol. The samples were then eluted with 3 mL of methanol and collected in 20 mL scintillation vials. Three mL of water was then added to each scintillation vial. The solutions were then transferred to tubes and centrifuged for 30 min at 1000 x g to remove any particulate material before chromatography. The [^3H]-testosterone substrate and its metabolites were separated by chromatography using a C-18 reversed phase column (Beckman Ultrasphere 5µm spherical 80A pore, part no. 235329, 4.6 mm i.d. x […]) with an isocratic mobile phase (46 water: 46 methanol: 8 tetrahydrofuran by volume). The column temperature was maintained at 35° and the flow rate was 1.5 mL/min. A 400 µL aliquot was injected onto the column and radioactivity was determined using a Beckman 171 in-line flow radioisotope detector in conjunction with Rainin Dynamax™ software and a Macintosh computer. The flow rate of the Atomflow™ scintillation fluid was 4.5 mL / min.

As to `C[C@]12CCC(=O)N[C@@H]1CCc1cc(-c3cnc4ccccc4c3)ccc12` [Example 196, (+)-(4aR)-(10bR)-8-(3-quinolinyl)-10b-methyl-1,2,3,4,4a,-5,6,10b-octahydrobenzo[f]quinolin-3-one], the “percent inhibition of Type I 5AR” value came out at 11%.
